Entries after “also recorded” stand apart in the source; their conditions may differ.
Legend:
Format in all cases: in vivo, mouse
gravid uteri = experiment: Gravid uterine weight after single dose
Source text: C57BL/6 male and female mice greater than seven weeks old were obtained from Takonic (Germantown, N.Y.). The mice were acclimated for at least five days prior to mating and housed in a twelve hour on and twelve hour off light schedule. The mice were mated in the evenings and vaginal plugs were checked for the next morning. Mating in mice is normally detected by the occurrence of vaginal plugs, which are formed by a mixture of the secretions of the vesicular and coagulating glands of the male and usually fill the vagina from cervix to vulva. The day of plugging was labeled Embryonic day 0 (E0). All animal studies were conducted according to the protocols approved by the Animal Ethics Committee of Children's Hospital. Plugged female mice were randomized and received either AGM-1470 30 mg/kg s.c. or saline on E1, 7, or 14. The dependence of female reproductive system on angiogenesis was examined by treating sexually mature inseminated and cycling mice with selective angiogenesis inhibitor AGM-1470.
Gravid uteri and ovaries were resected enbloc and weighed. Gravid uterine weight (grams wet weight, mean SE, n=3/day) in the control group increased exponentially from E6 (0.20±0.01), to E9 (0.53±0.05), E13 (3.78±0.36), and E18 (12.87±0.62). Gravid uterine weights from mice treated with AGM-1470 on E1 had no weight increase after E9 [E6 (0.29±0.01), E9 (0.63±0.01), E13 (0.72±0.08, p<0.05), and E18 (0.68±0.02, p<0.05)]. Gravid uterine weights from mice treated with AGM-1470 on E7 increased initially but then regresses after E13 [E9 (0.71±0.01), E13 (2.03±0.14, p<0.05), and E18 (1.08±0.06, p<0.05)].

inseminated mice [1] = experiment: Number of implantation sites after single dose pre-implantation; conditions: 30 mg/kg on E1, n=16
Description: The same procedures were followed as described above in Example 2 to administer 30 mg/kg AGM-1470 in single doses on the specified days. The mice were sacrificed and the number of implantation cites were counted. There was no decrease in the number of implantation cites when AGM-1470 was given on E1 [control mice had 8±0.2 implants (n=29), mice injected with AGM-1470 on E1 had 9±0.4 implants (n=16)].

[2] = test system: embryo and yolk sac blood vessels; experiment: Whole mount anti-CD31/PECAM staining of embryo and yolk sac on E9; conditions: 30 mg/kg on E7, studied E9
Description: Mice were treated with 30 mg/kg AGM-1470 following the same protocol in Example 2. The control and AGM-1470 treated embryos were studied on E9 by whole mount immunohistochemistry for CD-31/PECAM to stain blood vessels. The fetus and the yolk sack in the mice given AGM-1470 on E1 were excluded due to necrosis by E9. […] Loss of vascular development in the embryo could be due to either a direct effect of AGM-1470 on the embryonic vasculature or to a secondary effect caused by failure of normal placental and yolk sac development.
The whole-mount immunohistochemistry with monoclonal antibody to mouse PECAM (CD31) was performed essentially as described by Schlaeger^29 Embryos were dissected from the uterus and fixed in 4% paraformaldehyde, PBS at 4° Celsius overnight. The fixed embryos were subsequently rinsed in PBS at room temperature and dehydrated in a methanol series. The dehydrated embryos were bleached in 5% hydrogen peroxide in methanol for 4 to 5 hours at room temperature and then rinsed twice in methanol. Embryos were stored at −20° Celsius until used. The bleached embryos were rehydrated and blocked with PBSMT (3% instant skim milk, 0.1% Triton X-100, PBS) for one hour twice at room temperature. The embryos were then incubated with a 1:10 diluted hybridoma supernatant in PBSMT at 4° Celsius overnight. On the next day, the embryos were washed with PBSMT at 4° Celsius five times (1 hour each) and then incubated with a biotinylated secondary anti-rat IgG, mouse adsorbed (Vector Laboratories, Burlingame, Calif.) in PBSMT at 4° Celsius overnight. On the third day, the embryos were rinsed in PBSMT at 4° Celsius five times (1 hour each) and then incubated in avidin and horse radish conjugated biotin in PBSMT (1:100 dilution) (Vectastatin Elite Standard ABC Kit, Vector Laboratories) overnight at 4° Celsius. On the fourth day embryos were rinsed in PBSMT at 4° Celsius five time (1 hour each) and finally in PBT (0.2% BSA, 0.1% Triton-X100, PBS) for 20 minutes at room temperature. […]

inseminated mice [3] = experiment: Inseminated mice, single low dose 3 mg/kg
Description: The same protocol was followed as was performed for AGM-1470 30 mg/kg except mice were injected with only 3 mg/kg AGM-1470 on E1 or E7. The 10-fold lower dose was tested to determine if a dose in which the fetuses come to term would produce birth defects. Mice were sacrificed at E18 and fetal viability, number of implantation cites, crown-rump length, and tail length were assessed.

female C57BL/6 mice = experiment: Single dose on E(-1): implantation sites 6 days after mating; conditions: single dose 30 mg/kg s.c. on E(-1), sacrificed 6 days after mating
Description: (§1) FIGS. 7A and 7B show the ovaries and uteri from a control mouse or an AGM-treated mouse given a single dose of AGM-1470 on E(−1). Group housed female C57BL/6 mice were treated with a single injection of AGM-1470 (30 mg/kg, s.c.) and paired with male breeders. Mice who mated on the day after treatment were sacrificed 6 days after mating. Ovaries and uteri were removed en bloc, fixed and stained with hemotoxylin and eosin. […] Thin arrows indicate the corpora lutea.
as §1, with “In addition,” for “FIGS. 7A and 7B show”, “from” for “from a”, “and” for “mouse or an AGM-treated mouse given a”, “treatment mice were examined.” for “dose of AGM-1470 on E(−1).”, “lutea.^1 The fat arrows indicate implantation sites in control not seen in treated animal.” for “lutea.”

## CO[C@@H]1[C@H](OC(=O)NC(=O)CCl)CC[C@]2(CO2)[C@H]1[C@@]1(C)O[C@@H]1CC=C(C)C [AGM-1470, O-chloroacetylcarbamoyl fumagillol]
Gravid uteri; treated on E1, weighed E6, n=3
  gravid uterine weight: 0.29±0.01 grams wet weight
Gravid uteri; treated on E1, weighed E9, n=3
  gravid uterine weight: 0.63±0.01 grams wet weight
Gravid uteri; treated on E1, weighed E13, n=3
  gravid uterine weight: 0.72±0.08 grams wet weight
Gravid uteri; treated on E1, weighed E18, n=3
  gravid uterine weight: 0.68±0.02 grams wet weight
Gravid uteri; treated on E7, weighed E9, n=3
  gravid uterine weight: 0.71±0.01 grams wet weight
Gravid uteri; treated on E7, weighed E13, n=3
  gravid uterine weight: 2.03±0.14 grams wet weight
Gravid uteri; treated on E7, weighed E18, n=3
  gravid uterine weight: 1.08±0.06 grams wet weight
Inseminated mice [1]
  number of implantation sites: 9±0.4 implants
[2]
  CD31 labeled vessels in heart and liver bud: almost a complete loss of CD31 labeled vessels
  capillary density of embryo (CD31): loss of capillary density; also recorded: diffuse decrease in capillary density
  capillary density of yolk sac (CD31): decrease in density and intercapillary distance of capillaries; also recorded: decreased capillary density
Inseminated mice [3]; 3 mg/kg on E1
  reduction of crown-rump length on E18 relative to control: 36%
  reduction of tail length relative to control: 43%
Inseminated mice [3]; 3 mg/kg on E1 (n=21 fetuses) or E7 (n=8 fetuses)
  fetal viability at E18: viable
Inseminated mice [3]; 3 mg/kg on E1, n=7 embryos
  crown-rump length on E18: 13.0±0.1 mm
Inseminated mice [3]; 3 mg/kg on E1 or E7, fetuses at E18
  birth defects: no birth defects
Inseminated mice [3]; 3 mg/kg on E7
  reduction of crown-rump length on E18 relative to control: 19%
  reduction of tail length relative to control: 12%
Inseminated mice [3]; 3 mg/kg on E7, n=7 embryos
  crown-rump length on E18: 16.5±0.5 mm
  tail length on E18: 10.0±0.1 mm
Female C57BL/6 mice
  implantation sites: prevented implantation; also recorded: not seen in AGM-1470 treated animal
